Assay results reported in patent publication US9062078B2, “Substituted 7-azabicyles and their use as orexin receptor modulators” (priority 2013, dated 2015).
Where two headings read alike, the source gives them in different places.

Key:
human orexin 1 receptor = human orexin 1 receptor (Homo sapiens (Human), UniProt O43613); experiment: Human orexin 1 receptor radioligand binding (competitive, [3H]-SB674042, CHO cell preparations)
human orexin 2 receptor = human orexin 2 receptor (Homo sapiens (Human), UniProt O43614); experiment: Human orexin 2 receptor radioligand binding (competitive, [3H]-EMPA, HEK293 cell preparations)
[1] = human orexin 1 receptor, [3H]-SB674042 competition binding, read-out: hOX1 Ki (nm)
[2] = human orexin 2 receptor, [3H]-EMPA competition binding, read-out: hOX2 Ki (nm)

Sequence of human orexin 2 receptor (O43614 whole entry): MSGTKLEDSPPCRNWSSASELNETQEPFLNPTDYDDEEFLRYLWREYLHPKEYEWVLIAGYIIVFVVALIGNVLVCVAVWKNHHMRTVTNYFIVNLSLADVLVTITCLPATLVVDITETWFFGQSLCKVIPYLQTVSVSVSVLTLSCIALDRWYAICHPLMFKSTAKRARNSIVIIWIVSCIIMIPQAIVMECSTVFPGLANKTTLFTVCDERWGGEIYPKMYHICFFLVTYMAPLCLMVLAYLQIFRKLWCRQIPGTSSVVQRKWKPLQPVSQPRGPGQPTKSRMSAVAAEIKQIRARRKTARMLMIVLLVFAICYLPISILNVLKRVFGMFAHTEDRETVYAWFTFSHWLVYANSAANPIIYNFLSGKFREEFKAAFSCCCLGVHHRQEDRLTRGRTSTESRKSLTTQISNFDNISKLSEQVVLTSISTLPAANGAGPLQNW
Sequence of human orexin 1 receptor (O43613 whole entry): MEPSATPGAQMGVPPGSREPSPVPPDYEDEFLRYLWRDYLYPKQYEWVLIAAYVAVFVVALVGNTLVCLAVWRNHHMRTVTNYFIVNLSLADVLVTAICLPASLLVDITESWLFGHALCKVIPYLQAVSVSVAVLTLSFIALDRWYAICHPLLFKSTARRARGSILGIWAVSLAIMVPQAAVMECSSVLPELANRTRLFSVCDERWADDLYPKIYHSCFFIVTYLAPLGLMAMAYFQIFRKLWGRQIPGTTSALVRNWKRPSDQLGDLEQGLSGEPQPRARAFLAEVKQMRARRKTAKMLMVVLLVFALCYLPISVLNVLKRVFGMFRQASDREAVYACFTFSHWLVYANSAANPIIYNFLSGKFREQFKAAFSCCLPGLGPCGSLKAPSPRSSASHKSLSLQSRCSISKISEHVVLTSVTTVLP

| Compound | Ki (human orexin 1 receptor; [1]) [nM] | Ki (human orexin 2 receptor; [2]) [nM] | Ki (human orexin 2 receptor; hOX2 Ki (nm)) [nM] | Ki (human orexin 1 receptor; hOX1 Ki (nm)) [nM] |
| --- | --- | --- | --- | --- |
| O=C(c1ccccc1-n1cccn1)N1C2CCC1C(COc1ccc(F)cn1)C2 (racemic) [Example 26, (±)-2-(1H-pyrazol-1-yl)phenyl)(2-(((5-fluoropyridin-2-yl)oxy)methyl)-7-azabicyclo[2.2.1]heptan-7-yl)methanone] | 117 | 394 | – | – |
| O=C(c1occc1-c1ccccc1)N1C2CCC1C(COc1ccc(F)cn1)C2 (racemic) [Example 27, (±)-2-(((5-fluoropyridin-2-yl)oxy)methyl)-7-azabicyclo[2.2.1]heptan-7-yl)(3-phenylfuran-2-yl)methanone] | 677 | – | 380 | – |
| CCOc1ccc2ccccc2c1C(=O)N1C2CCC1C(COc1ccc(F)cn1)C2 (racemic) [Example 28, (±)-(2-ethoxynaphthalen-1-yl)(2-(((5-fluoropyridin-2-yl)oxy)methyl)-7-azabicyclo[2.2.1]heptan-7-yl)methanone] | 14 | 11 | – | – |
| Cc1nc(C(=O)N2C3CCC2C(COc2ccc(F)cn2)C3)c(-c2ccccc2F)s1 (racemic) [Example 29, (±)-(5-(2-fluorophenyl)-2-methylthiazol-4-yl)(2-(((5-fluoropyridin-2-yl)oxy)methyl)-7-azabicyclo[2.2.1]heptan-7-yl)methanone] | 11 | 60 | – | – |
| O=C(c1cc(F)ccc1-n1nccn1)N1C2CCC1C(COc1ccc(F)cn1)C2 (racemic) [Example 30, (±)-(5-fluoro-2-(2H-1,2,3-triazol-2-yl)phenyl)(2-(((5-fluoropyridin-2-yl)oxy)methyl)-7-azabicyclo[2.2.1]heptan-7-yl)methanone] | 47 | 149 | – | – |
| O=C(c1c(F)cccc1-c1ncccn1)N1C2CCC1C(COc1ccc(F)cn1)C2 (racemic) [Example 31, (±)-(2-fluoro-6-(pyrimidin-2-yl)phenyl)(2-(((5-fluoropyridin-2-yl)oxy)methyl)-7-azabicyclo[2.2.1]heptan-7-yl)methanone] | 33 | 122 | – | – |
| O=C(c1cc(F)ccc1-c1ncccn1)N1C2CCC1C(COc1ccc(F)cn1)C2 (racemic) [Example 32, (±)-(5-fluoro-2-(pyrimidin-2-yl)phenyl)(2-(((5-fluoropyridin-2-yl)oxy)methyl)-7-azabicyclo[2.2.1]heptan-7-yl)methanone] | – | 123 | – | 21 |
| O=C(c1ccccc1-n1nccn1)N1C2CCC1C(COc1cnc3ccccc3n1)C2 (racemic) [Example 34, (±)-(2-(2H-1,2,3-triazol-2-yl)phenyl)(2-((quinoxalin-2-yloxy)methyl)-7-azabicyclo[2.2.1]heptan-7-yl)methanone] | 60 | 467 | – | – |
| Cc1ccc(-n2nccn2)c(C(=O)N2C3CCC2C(COc2cnc4ccccc4n2)C3)c1 (racemic) [Example 36, (±)-(5-methyl-2-(2H-1,2,3-triazol-2-yl)phenyl)(2-((quinoxalin-2-yloxy)methyl)-7-azabicyclo[2.2.1]heptan-7-yl)methanone] | 70 | 107 | – | – |
| O=C(c1cc(F)ccc1-n1nccn1)N1C2CCC1C(COc1cnc3ccccc3n1)C2 (racemic) [Example 37, (±)-(5-fluoro-2-(2H-1,2,3-triazol-2-yl)phenyl)(2-((quinoxalin-2-yloxy)methyl)-7-azabicyclo[2.2.1]heptan-7-yl)methanone] | 300 | 487 | – | – |
| Cc1ccc(-c2ncccn2)c(C(=O)N2C3CCC2C(COc2cnc4ccccc4n2)C3)c1 (racemic) [Example 38, (±)-(5-methyl-2-(pyrimidin-2-yl)phenyl)(2-((quinoxalin-2-yloxy)methyl)-7-azabicyclo[2.2.1]heptan-7-yl)methanone] | – | 383 | – | 120 |
| Cc1ccc(-n2nccn2)c(C(=O)N2C3CCC2C(COc2nc(C)cc(C)n2)C3)c1 (racemic) [Example 39, (±)-(2-(((4,6-dimethylpyrimidin-2-yl)oxy)methyl)-7-azabicyclo[2.2.1]heptan-7-yl)(5-methyl-2-(2H-1,2,3-triazol-2-yl)phenyl)methanone] | – | 27 | – | 29 |
| Cc1cc(C)nc(OCC2CC3CCC2N3C(=O)c2c(C)noc2-c2ccccc2)n1 (racemic) [Example 40, (±)-2-(((4,6-dimethylpyrimidin-2-yl)oxy)methyl)-7-azabicyclo[2.2.1]heptan-7-yl)(3-methyl-5-phenylisoxazol-4-yl)methanone] | 5000 | 1200 | – | – |
| CCOc1ccc2ccccc2c1C(=O)N1C2CCC1C(COc1nc(C)cc(C)n1)C2 (racemic) [Example 41, (±)-(2-(((4,6-dimethylpyrimidin-2-yl)oxy)methyl)-7-azabicyclo[2.2.1]heptan-7-yl)(2-ethoxynaphthalen-1-yl)methanone] | 35 | 22 | – | – |
| Cc1cc(C)nc(OCC2CC3CCC2N3C(=O)c2c(F)cccc2-c2ncccn2)n1 (racemic) [Example 43, (±)-(2-(((4,6-dimethylpyrimidin-2-yl)oxy)methyl)-7-azabicyclo[2.2.1]heptan-7-yl)(2-fluoro-6-(pyrimidin-2-yl)phenyl)methanone] | 222 | 92 | – | – |
| Cc1cc(C)nc(OCC2CC3CCC2N3C(=O)c2cc(F)ccc2-c2ncccn2)n1 (racemic) [Example 44, (±)-(2-(((4,6-dimethylpyrimidin-2-yl)oxy)methyl)-7-azabicyclo[2.2.1]heptan-7-yl)(5-fluoro-2-(pyrimidin-2-yl)phenyl)methanone] | – | 104 | – | 400 |
| Cc1ccc(-c2ncccn2)c(C(=O)N2C3CCC2C(COc2nc(C)cc(C)n2)C3)c1 (racemic) [Example 45, (±)-(2-(((4,6-dimethylpyrimidin-2-yl)oxy)methyl)-7-azabicyclo[2.2.1]heptan-7-yl)(5-methyl-2-(pyrimidin-2-yl)phenyl)methanone] | 79 | 59 | – | – |
| Cc1cc(C)nc(OCC2CC3CCC2N3C(=O)c2ccccc2-c2cccs2)n1 (racemic) [Example 46, (±)-(2-(((4,6-dimethylpyrimidin-2-yl)oxy)methyl)-7-azabicyclo[2.2.1]heptan-7-yl)(2-(thiophen-2-yl)phenyl)methanone] | 82 | 10 | – | – |
| Cc1noc(-c2ccccc2C(=O)N2C3CCC2C(COc2ccccn2)C3)n1 (racemic) [Example 127, (±)-(2-(3-methyl-1,2,4-oxadiazol-5-yl)phenyl)(2-((pyridin-2-yloxy)methyl)-7-azabicyclo[2.2.1]heptan-7-yl)methanone] | 190 | 1100 | – | – |
| Cc1ccc(C(=O)N2C3CCC2C(COc2ccccn2)C3)c(-n2nccn2)n1 (racemic) [Example 128, (±)-(6-methyl-2-(2H-1,2,3-triazol-2-yl)pyridin-3-yl)(2-((pyridin-2-yloxy)methyl)-7-azabicyclo[2.2.1]heptan-7-yl)methanone] | 5700 | ≥ 10000 | – | – |
| O=C(c1cccc(F)c1-n1nccn1)N1C2CCC1C(COc1ccccn1)C2 (racemic) [Example 129, (±)-(3-fluoro-2-(2H-1,2,3-triazol-2-yl)phenyl)(2-((pyridin-2-yloxy)methyl)-7-azabicyclo[2.2.1]heptan-7-yl)methanone] | 190 | 1000 | – | – |
